Experimental data as given in patent US20040248860A1, “Use of selective progesterone receptor modulators for the treatment of androgen deficiency” (priority 2002, published 2004).

Legend:
[1] = test system: sex hormone-binding globulin (SHBG); test: Phase II study of J867: SHBG levels over 12 weeks; type: in vivo, human (female subjects); details: 12 week treatment
Method: (§1) The effect of SPRMs on testosterone levels and SHBG levels was studied using various doses of J867 over three months. The study was a phase II, multi-center, randomized, double blind, parallel group study of J867 at doses of 5 mg, 10 mg, and 25 mg once a day (QD)compared to placebo. Approximately 120 female subjects between the ages of 18 and 49 were enrolled in the study and randomly assigned to one of the four dosing groups above. During the 12 week study, testosterone and SHBG were measured at screening visits during weeks 2, 4, 8, and 12 of the study.
SHBG levels were also measured at weeks 2, 4, 8, and 12 of the study.

[2] = test system: total testosterone levels; test: Phase II study of J867: total testosterone levels over 12 weeks; type: in vivo, human (female subjects); details: for mean testosterone concentration increase over the treatment period: female subjects, 12 week treatment, change from baseline
Method: as §1
FIG. 1 is a graph showing total testosterone levels as a function of time during the study. […] Testosterone concentrations were relatively constant for the group receiving placebo. […] Over the treatment period, the mean testosterone concentrations for the 5 mg QD group increased approximately 7-15 ng/dL; the mean increase for the 10 mg QD group was approximately 15-21 ng/dL; and the mean concentrations observed following treatment with 25 mg QD increased approximately 16-25 ng/dL.

progesterone receptor = biological target: T1, progesterone receptor (Oryctolagus cuniculus, UniProt P06186); details: rabbit model, scale of 0-4; cited from earlier work
T1 construct: effects of compounds at the progesterone receptor using a rabbit model; from tissue; host or cells: live rabbit (in vivo)
T1 sequence (P06186 1-930): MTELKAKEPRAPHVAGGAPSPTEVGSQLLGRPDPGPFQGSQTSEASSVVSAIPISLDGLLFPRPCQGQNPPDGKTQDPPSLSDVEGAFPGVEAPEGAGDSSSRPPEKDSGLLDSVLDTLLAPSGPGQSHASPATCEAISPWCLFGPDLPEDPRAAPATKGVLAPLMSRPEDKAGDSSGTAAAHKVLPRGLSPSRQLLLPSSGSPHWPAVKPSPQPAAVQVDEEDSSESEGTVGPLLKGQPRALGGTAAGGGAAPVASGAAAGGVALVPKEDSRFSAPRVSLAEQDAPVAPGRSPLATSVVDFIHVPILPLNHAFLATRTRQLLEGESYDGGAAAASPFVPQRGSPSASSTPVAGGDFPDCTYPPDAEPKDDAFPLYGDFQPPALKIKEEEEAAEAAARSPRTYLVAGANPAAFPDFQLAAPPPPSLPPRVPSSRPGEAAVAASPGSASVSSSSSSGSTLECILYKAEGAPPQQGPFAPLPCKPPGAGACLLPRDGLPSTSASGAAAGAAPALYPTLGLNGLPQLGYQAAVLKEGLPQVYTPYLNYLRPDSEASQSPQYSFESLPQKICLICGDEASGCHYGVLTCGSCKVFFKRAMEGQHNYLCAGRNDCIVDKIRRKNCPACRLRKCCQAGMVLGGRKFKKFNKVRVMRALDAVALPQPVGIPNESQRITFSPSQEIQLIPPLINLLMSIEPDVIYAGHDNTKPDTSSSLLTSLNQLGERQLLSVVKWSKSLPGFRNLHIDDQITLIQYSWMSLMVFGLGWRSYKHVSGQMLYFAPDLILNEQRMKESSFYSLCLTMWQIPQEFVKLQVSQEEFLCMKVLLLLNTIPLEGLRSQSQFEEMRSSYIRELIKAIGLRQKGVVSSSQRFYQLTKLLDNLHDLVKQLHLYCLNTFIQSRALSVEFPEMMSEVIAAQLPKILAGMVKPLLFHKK

Compound	mean level of SHBG during treatment ([1]; 5 mg QD)	mean level of SHBG during treatment ([1]; 10 mg QD)	mean level of SHBG during treatment ([1]; 25 mg QD)	mean testosterone concentration increase over the treatment period ([2]; 5 mg QD) [ng/dL]	mean testosterone concentration increase over the treatment period ([2]; 10 mg QD) [ng/dL]	mean testosterone concentration increase over the treatment period ([2]; 25 mg QD) [ng/dL]	total testosterone levels (FIG. 1) ([2]; all doses (5, 10, 25 mg QD) compared to placebo)	visit with largest mean increase of testosterone from baseline ([2]; all three dose groups (5, 10, 25 mg QD)) [week]	testosterone concentrations at the end of the study ([2]; all three dose groups, week 12)	McPhail score (progesterone receptor)
COC[C@]1(OC)CC[C@H]2[C@@H]3CCC4=CC(=O)CCC4=C3[C@@H](c3ccc(/C=N/O)cc3)C[C@@]21C [J867, [4-[17β-Methoxy-17α-(methoxymethyl)-3-oxoestra-4,9-dien-11β-yl]benzaldehyd-(1E)-oxim]]	remained relatively constant	decreased from baseline	decreased from baseline	7 to 15	15 to 21	16 to 25	testosterone levels increased with all doses	2	still elevated above baseline	–
CC(=O)[C@H]1CC[C@H]2[C@@H]3CCC4=CC(=O)CC[C@]4(C)[C@H]3CC[C@]12C [progesterone]	–	–	–	–	–	–	–	–	–	4
CC#C[C@]1(O)CC[C@H]2[C@@H]3CCC4=CC(=O)CCC4=C3[C@@H](c3ccc(N(C)C)cc3)C[C@@]21C [RU486, mifepristone]	–	–	–	–	–	–	–	–	–	less than 0.5
